Each structure is given as a SMILES string.

Data on one compound can be found in patent publication US11040056B2, “Benzimidazoles that enhance the activity of oligonucleotides” (The University of North Carolina at Chapel Hill, priority 2018, dated 2021).

Holding throughout (assay type): cell-based
Data set [1] deals with lysosomes of HeLa Luc 705 cells. In words: Lysotracker Red accumulation assay. The following applies: 10 μM. On the procedure: FIG. 9A-9D. Effects on lysosomes. FIG. 9A: Lysotracker uptake. Accumulation of Lysotracker Red in HeLa Luc 705 cells was measured after a 2 h exposure of cells to the indicated concentrations of various analogs. The lysosomotropic compound chloroquine was included as a positive control. Means of triplicate determinations are shown. The color-coded numbers refer to the fold increase in luciferase induction attained by the concentration of analog associated with the adjacent symbol on the graph. The numbers are taken from the data of FIG. 1C for UNC2383 and FIG. 4 for UNC4267, UNC4258, and UNC4428. FIG. 9B: LT50 vs TC50. […] Nonlinear regression was calculated using Prism software. The R^2 value for the plot is 0.91. FIG. 9C: 2383 vs chloroquine; luciferase induction. HeLa Luc705 cells were exposed to SSO623 and then treated with various concentrations of UNC2383 or chloroquine for 2 h and then tested for luciferase induction following the methods described in FIG. 1B-FIG. 1E. […]
The integrity of lysosomes was evaluated using the fluorescent probe Lysotracker Red (Thermo Fisher). […] Cells were thoroughly rinsed in PBS, lysed in 0.2% TX 100, and centrifuged briefly at 4000 rpm, and 100 uL of the supernate was distributed to black 96 well plates for analysis of fluorescence using a FLUOstar Omega 96 well microplate reader.

The subject of another data set is HeLaLuc705 cells. In words: SSO-mediated luciferase induction assay. On the procedure:
FIG. 1B-1E. Effects with SSOs. FIG. 1B Structure of UNC2383. […] The cells were then rinsed and incubation continued for an additional 4 h in DMEM+10% FBS. Cells were rinsed twice in PBS and luciferase activity (RLU) and cell protein determined. The larger round symbol indicates the MM oligonucleotide. Means+/−SE. N=3. […] The cells were further incubated and then luciferase and protein determined. The total time of incubation in each case was 6 h. […] Means+/−SE. N=3.
(§1) FIG. 3. Effect and Cytotoxicity of Analogs. The effect of selected UNC2383 analogs on luciferase induction by SSO623 was measured as described in Methods and in the legend of FIG. 1B-1E. Cytotoxicity was measured using the Alamar Blue method as in FIG. 1E. MM10 is the effect of 10 uM compound in the presence of a mismatched oligonucleotide. Means and SE. N=3.
HeLaLuc705 cells are stably transfected with a firefly luciferase reporter whose coding sequence is interrupted by an abnormal intron. […] NIH-3T3-MDR cells are stably transfected with a human MDR1 cDNA coding for the P-glycoprotein (Pgp). We have described the maintenance and use of these cell lines elsewhere. (18, 20)
SSO-mediated luciferase induction assays were conducted as previously described. (18) In short, HeLaLuc705 cells in 24 well culture plates were preincubated with SSO623 followed by brief treatment with the small molecule; at intervals thereafter, luciferase activity and protein content were determined. […] (30)

Data set [2] in a line: Alamar Blue cytotoxicity assay. The following applies: human, HeLa Luc705 cells; Alamar Blue cytotoxicity; read-out: TC50. On the procedure: (§2) FIG. 1B-1E. Effects with SSOs. FIG. 1B Structure of UNC2383. FIG. 1C Compound 2383 enhances SSO effects. Cells were incubated in 24-well plates with 100 nM SSO623 or its mismatched control (MM) for 16 h in DMEM+10% FBS, rinsed and then treated with various concentrations of 2383 for 2 h. The cells were then rinsed and incubation continued for an additional 4 h in DMEM+10% FBS. Cells were rinsed twice in PBS and luciferase activity (RLU) and cell protein determined. The larger round symbol indicates the MM oligonucleotide. Means+/−SE. N=3. FIG. 1D Kinetics of 2383 action. Cells were preloaded with 100 nM SSO623 and then exposed to 2383 for various periods after which the compound was removed. The cells were further incubated and then luciferase and protein determined. The total time of incubation in each case was 6 h. FIG. 1E Cytotoxicity of 2383. HeLa Luc705 or NIH-3T3-MDR cells were exposed to 2383 as in (FIG. 1C) then incubated for 24 h in DMEM plus 10% FBS and tested using the Alamar Blue cytotoxicity assay. Means+/−SE. N=3.
as §1
(§3) SSO-mediated luciferase induction assays were conducted as previously described. (18) In short, HeLaLuc705 cells in 24 well culture plates were preincubated with SSO623 followed by brief treatment with the small molecule; at intervals thereafter, luciferase activity and protein content were determined. ASO mediated inhibition of MDR1 gene expression utilized an Alexa 488 labeled anti-P-glycoprotein antibody and flow cytometry to measure Pgp expression as described. (20) The anti-MDR1 sequence is 5′-CCATCccgacctcgcGCTCC-3′(SEQ ID NO: 5) (all phosphorothiopate with 2-O-Me residues in capitals). Cytotoxicity of 2383 was monitored using the Alamar Blue assay. (30)
(The colour change of resazurin is a common sign of viable cells or microbes.)

In the next data set the test system is HeLa Luc705 cells. In words: Alamar Blue cytotoxicity assay. The following applies: ratio of cytotoxicity TC50 to luciferase induction EC50. On the procedure: as §2, §1, §3

Turning to `O=C(Nc1nc2cc(Cl)c(Cl)cc2n1CCN1CCCC1)c1cc2cc(Cl)ccc2o1` [UNC4428], in data set [1], the “effect on lysotracker accumulation” value is listed as “little effect”. Besides, the “enhancement of SSO actions” value in the data set on HeLaLuc705 cells (10 μM) is “quite strongly enhanced”. The midpoint of the response with HeLaLuc705 cells (luciferase induction by SSO623), the EC50, lay at 10 µM. Further, in data set [2], the CC50 at 2 h was 50 µM. The TC50/EC50 in the data set on HeLa Luc705 cells amounted to 5.
